Data set [1] relates to Rattus norvegicus. Kind of data set: Acute toxicity in rat assessed as induction of red urine excretion at 10 mg/kg, iv administered for 30 mins measured after 1 hr post dose. The note with it: in vivo. It is filed as organism-based.
Data set [2] deals with Rattus norvegicus. The data set is described as follows: Acute toxicity in rat assessed as lethargy at 10 mg/kg, iv administered for 30 mins measured at 1 hr post dose. The following applies: in vivo. It is filed as organism-based.
Data set [3] relates to Rattus norvegicus. Kind of data set: Acute toxicity in rat assessed as labored breathing at 10 mg/kg, iv administered for 30 mins measured immediately and 10 mins post dose. It is filed as organism-based. The note with it: in vivo.
Data set [4] deals with Rattus norvegicus. The data set is described as follows: Acute toxicity in rat assessed as recumbency at 10 mg/kg, iv administered for 30 mins measured immediately and 10 mins post dose. The note with it: in vivo. It is filed as organism-based.
Data set [5] deals with Rattus norvegicus. The data set is described as follows: Acute toxicity in rat assessed as induction of red urine excretion at 10 mg/kg, iv administered for 30 mins measured immediately, 10 mins and 1 hr post dose. It is filed as organism-based. The following applies: in vivo.
In data set [6] the test system is Rattus norvegicus. Kind of data set: Acute toxicity in rat assessed as mortality at 10 mg/kg, iv administered for 30 mins measured post dose. It is filed as organism-based. The note with it: in vivo, 0.5 h.
The subject of data set [7] is Mus musculus. Kind of data set: Toxicity in athymic nude mouse xenografted with human TT cells at 7.5 to 15 mg/kg, ip qd administered for 2 weeks. It is filed as organism-based. The following applies: in vivo, 336 h.
In data set [8] the test system is OVCAR-3. Kind of data set: Induction of DNA damage in human OVCAR3 cells assessed as increase in gamma-H2AX levels at 10 uM in presence of topotecan. It is filed as functional.
In data set [9] the test system is Mus musculus. The data set is described as follows: Toxicity in athymic nude mouse xenografted with human HT-29 cells assessed as overt toxicity at 10 to 20 mg/kg, ip qd administered 5 days for 2 weeks. It is filed as organism-based. The note with it: in vivo.
Data set [10] concerns Mus musculus. The data set is described as follows: Toxicity in athymic nude mouse xenografted with human HT-29 cells assessed as loss of body weight at 10 to 20 mg/kg, ip qd administered 5 days for 2 weeks. It is filed as organism-based. The note with it: in vivo.
Data set [11] deals with A549. The data set is described as follows: Antitumor activity against human A549 cells xenografted in athymic nude mouse assessed as tumor growth at 10 mg/kg, po qd administered 5 days for 3 weeks measured on day 26 (reference value: 43 mm3/day). It is filed as functional.
Data set [12] deals with Mus musculus. The data set is described as follows: Toxicity in athymic nude mouse xenografted with human A549 cells assessed as loss of body weight at 50 to 150 mg/kg, po qd administered 5 days for 3 weeks. It is filed as organism-based. The following applies: in vivo.
The test system of data set [13] is Canis familiaris. The data set is described as follows: Acute toxicity in Beagle dog assessed as weight gain at 10 mg/kg, iv administered for 48 hrs followed by 20 mg/kg, iv administered for 3 days measured everyday after second dose. It is filed as organism-based, Canis lupus familiaris. The following applies: in vivo.
Data set [14] concerns Canis familiaris. Kind of data set: Acute toxicity in male Beagle dog assessed as adverse clinical signs at 10 mg/kg, iv. The note with it: in vivo. It is filed as organism-based, Canis lupus familiaris.
In data set [15] the test system is Canis familiaris. The data set is described as follows: Acute toxicity in Beagle dog assessed as adverse events at 10 mg/kg, iv administered for 48 hrs followed by 20 mg/kg, iv administered for 3 days measured everyday after second dose. It is filed as organism-based, Canis lupus familiaris. The following applies: in vivo.
Data set [16] deals with Canis familiaris. The data set is described as follows: Acute toxicity in Beagle dog assessed as thrombus formation in veins at 10 mg/kg, iv administered for 48 hrs followed by 20 mg/kg, iv administered for 3 days measured post dose. It is filed as organism-based, Canis lupus familiaris. The following applies: in vivo.
In data set [17] the test system is Canis familiaris. Kind of data set: Acute toxicity in male Beagle dog assessed as mild venous congestion in meningeal vein between brain hemispheres and in venous sinus on cranial floor at 10 mg/kg, iv administered for 48 hrs followed by 20 mg/kg, iv administered for 3 days measured post dose. It is filed as organism-based, Canis lupus familiaris. The following applies: in vivo.

Data set [18] concerns Canis familiaris. Kind of data set: Acute toxicity in Beagle dog assessed as animal appearance at 0.625 to 20 mg/kg, iv administered with 48 to 96 hrs between dose escalations with exception of 11 days between dose 5 and 6 measured after doses 1 through 5 and prior to dose 6. It is filed as organism-based, Canis lupus familiaris. The note with it: in vivo.
The subject of data set [19] is Canis familiaris. The data set is described as follows: Acute toxicity in Beagle dog assessed as anxiety at 0.625 to 20 mg/kg, iv dosed with 48 to 96 hrs between dose escalations with exception of 11 days between dose 5 and 6 measured during dose 6 administration. It is filed as organism-based, Canis lupus familiaris. The following applies: in vivo.
Data set [20] concerns Canis familiaris. The data set is described as follows: Acute toxicity in Beagle dog assessed as facial swelling at 0.625 to 20 mg/kg, iv dosed with 48 to 96 hrs between dose escalations with exception of 11 days between dose 5 and 6 measured during dose 6 administration. It is filed as organism-based, Canis lupus familiaris. The note with it: in vivo.
The test system of data set [21] is Canis familiaris. Kind of data set: Acute toxicity in Beagle dog assessed as urination at 0.625 to 20 mg/kg, iv dosed with 48 to 96 hrs between dose escalations with exception of 11 days between dose 5 and 6 measured during dose 6 administration. It is filed as organism-based, Canis lupus familiaris. The following applies: in vivo.
The test system of data set [22] is Canis familiaris. Kind of data set: Acute toxicity in Beagle dog assessed as defecation at 0.625 to 20 mg/kg, iv dosed with 48 to 96 hrs between dose escalations with exception of 11 days between dose 5 and 6 measured during dose 6 administration. It is filed as organism-based, Canis lupus familiaris. The note with it: in vivo.
For data set [23], the system named is Canis familiaris. The data set is described as follows: Acute toxicity in Beagle dog assessed as depression at 0.625 to 20 mg/kg, iv dosed with 48 to 96 hrs between dose escalations with exception of 11 days between dose 5 and 6 measured during dose 6 administration. The note with it: in vivo. It is filed as organism-based, Canis lupus familiaris.
Data set [24] concerns Canis familiaris. Kind of data set: Acute toxicity in Beagle dog assessed as recumbency at 0.625 to 20 mg/kg, iv dosed with 48 to 96 hrs between dose escalations with exception of 11 days between dose 5 and 6 measured during dose 6 administration. It is filed as organism-based, Canis lupus familiaris. The note with it: in vivo.
In data set [25] the test system is Canis familiaris. Kind of data set: Acute toxicity in female Beagle dog assessed as mortality at 0.625 to 20 mg/kg, iv measured after 5 mins of completion of dose 6 administration. The following applies: in vivo. It is filed as organism-based, Canis lupus familiaris.
The subject of data set [26] is Canis familiaris. The data set is described as follows: Acute toxicity in male Beagle dog assessed as animal appearance at 0.625 to 20 mg/kg, iv dosed with 48 to 96 hrs between dose escalations with exception of 11 days between dose 5 and 6 measured following day after dose 6 administration. It is filed as organism-based, Canis lupus familiaris. The note with it: in vivo.

For data set [27], the system named is Canis familiaris. Kind of data set: Acute toxicity in female Beagle dog assessed as meningeal vessel congestion at 0.625 to 20 mg/kg, iv administered with 48 to 96 hrs between dose escalations with exception of 11 days between dose 5 and 6 measured after 21 days. It is filed as organism-based, Canis lupus familiaris. The following applies: in vivo, 504 h.
For data set [28], the system named is Canis familiaris. The data set is described as follows: Acute toxicity in Beagle dog assessed as weight gain at 0.625 to 20 mg/kg, iv dosed with 48 to 96 hrs between dose escalations with exception of 11 days between dose 5 and 6 measured during course of 21 study days. It is filed as organism-based, Canis lupus familiaris. The note with it: in vivo.
Data set [29] relates to Canis familiaris. The data set is described as follows: Acute toxicity in female Beagle dog assessed as intestinal mucosal congestion at 0.625 to 20 mg/kg, iv administered with 48 to 96 hrs between dose escalations with exception of 11 days between dose 5 and 6 measured after 21 days. It is filed as organism-based, Canis lupus familiaris. The note with it: in vivo, 504 h.

Data set [30] concerns Canis familiaris. Kind of data set: Acute toxicity in Beagle dog at 20 mg/kg, iv. It is filed as organism-based, Canis lupus familiaris. The following applies: in vivo.
Data set [31] has as its system Rattus norvegicus. The data set is described as follows: Acute toxicity in rat assessed as recumbency at 10 mg/kg, iv administered for 30 mins measured after 1 hr post dose. It is filed as organism-based. The following applies: in vivo.
The subject of data set [32] is Rattus norvegicus. The data set is described as follows: Acute toxicity in rat assessed as lethargy at 10 mg/kg, iv administered for 30 mins measured after 1 hr post dose. It is filed as organism-based. The following applies: in vivo.
The test system of data set [33] is Rattus norvegicus. Kind of data set: Acute toxicity in rat assessed as red tinged urine at 10 mg/kg, iv administered for 30 mins measured post dose. It is filed as organism-based. The note with it: in vivo, 0.5 h.
For data set [34], the system named is Rattus norvegicus. Kind of data set: Acute toxicity in rat assessed as dark red mottled lungs at 10 mg/kg, iv administered for 30 mins measured post dose. It is filed as organism-based. The note with it: in vivo, 0.5 h.
Data set [35] has as its system Rattus norvegicus. The data set is described as follows: Acute toxicity in rat assessed as normal appearance at 10 mg/kg, iv administered for 30 mins measured on day 4. The following applies: in vivo, 0.5 h. It is filed as organism-based.
Data set [36] deals with Rattus norvegicus. The data set is described as follows: Acute toxicity in rat assessed as red urine at 0.625 to 10 mg/kg, iv administered as single dose for 30 mins measured immediately, 10 mins and 1 hr post dose. It is filed as organism-based. The following applies: in vivo.
The subject of data set [37] is Rattus norvegicus. Kind of data set: Acute toxicity in rat assessed as wobbly appearance at 0.625 to 10 mg/kg, iv administered as single dose for 30 mins measured immediately, 10 mins and 1 hr post dose. It is filed as organism-based. The note with it: in vivo.
In data set [38] the test system is Rattus norvegicus. Kind of data set: Acute toxicity in rat assessed as loss of body weight at 0.625 to 10 mg/kg, iv administered as single dose for 30 mins measured on day 2. It is filed as organism-based. The note with it: in vivo, 0.5 h.
The subject of data set [39] is Rattus norvegicus. Kind of data set: Acute toxicity in rat assessed as normal appearance at 0.625 to 10 mg/kg, iv administered as single dose for 30 mins measured on day 4. The note with it: in vivo, 0.5 h. It is filed as organism-based.
Data set [40] has as its system Rattus norvegicus. Kind of data set: Acute toxicity in rat assessed as bright red lungs at 10 mg/kg, iv administered as single dose for 30 mins measured on day 4. It is filed as organism-based. The note with it: in vivo, 0.5 h.
The subject of data set [41] is Mus musculus. The data set is described as follows: Toxicity in athymic nude mouse xenografted with human A549 cells assessed as loss of body weight at 10 mg/kg, po qd administered 5 days for 3 weeks. It is filed as organism-based. The note with it: in vivo.

With `S=C(NCc1ccc2c(c1)OCO2)N1CCN(c2ncnc3c2oc2ccccc23)CC1` [AMUVATINIB], the Activity entry is “Non-Toxic” in [1]; “Toxic” in data set [2]; “Toxic” in data set [3]; “Toxic” in data set [4]; “Toxic” in data set [5]; “Toxic” in data set [6]. Moreover, the Activity result in [7] is given as “Non-Toxic”; in [8] it was 103%; in data set [9], “Toxic”; in [10] it was “Non-Toxic”; in data set [11], 19.5 mm3/day; in data set [12], “Non-Toxic”. Further, the Activity entry in data set [13] is recorded as “Toxic”; in [14], “Non-Toxic”; in data set [15], “Toxic”; in [16], “Toxic”; in data set [17], “Toxic”; in data set [18], “Non-Toxic”. For the same compound, the Activity entry in data set [19], in data set [20], in data set [21], in [22], in data set [23] and in data set [24] was “Toxic” throughout. Further, the Activity entry in data set [25] is given as “Toxic”; in [26], “Non-Toxic”; in data set [27], “Toxic”; in [28] it was “Toxic”; in [29] it was “Toxic”; in data set [30], “Toxic”. In addition, the Activity result in data set [31] is given as “Non-Toxic”; in data set [32], “Non-Toxic”; in [33], “Toxic”; in data set [34], “Toxic”; in [35], “Non-Toxic”; in [36], “Toxic”. Also, the Activity entry in data set [37] is given as “Toxic”; in data set [38], “Toxic”; in [39], “Non-Toxic”; in data set [40], “Toxic”.
In the case of `O=c1[nH]cc(F)c(=O)[nH]1` [FLUOROURACIL], in [41], the Activity entry is given as “Non-Toxic”.

(Values after ChEMBL document CHEMBL3991943, “Pharmaceutical formulations comprising salts of a protein kinase inhibitor and methods of using same” (2013).)
